Measurements as given in paper PMC6010138, “Synthesis and carbonic anhydrase I, II, VII, and IX inhibition studies with a series of benzo[d]thiazole-5- and 6-sulfonamides” (Journal of Enzyme Inhibition and Medicinal Chemistry, 2017).

Columns and labels:
Experiment in all cases: stopped-flow CO2 hydrase assay
Format in all cases: biochemical
hCA IX = target: T1, hCA IX (Homo sapiens, UniProt Q16790)
T1 construct: gene CA9; recombinant, obtained in-house; transmembrane isoform

hCA II = target: T2, hCA II (Homo sapiens, UniProt P00918)
T2 construct: gene CA2; recombinant, obtained in-house; cytosolic isoform
From the text: stopped-flow CO2 hydrase assay on hCA II

hCA I = target: T3, hCA I (Homo sapiens, UniProt P00915)
T3 construct: gene CA1; recombinant, obtained in-house; cytosolic isoform
T3 sequence (P00915 2-261): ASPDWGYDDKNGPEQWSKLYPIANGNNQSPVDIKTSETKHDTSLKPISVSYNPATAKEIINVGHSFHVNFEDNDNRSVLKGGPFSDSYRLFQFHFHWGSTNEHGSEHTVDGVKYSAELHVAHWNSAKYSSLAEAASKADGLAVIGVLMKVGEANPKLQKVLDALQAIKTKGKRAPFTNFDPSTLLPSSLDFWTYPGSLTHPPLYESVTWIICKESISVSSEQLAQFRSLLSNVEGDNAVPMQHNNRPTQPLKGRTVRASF

hCA VII = target: T4, hCA VII (Homo sapiens, UniProt P43166)
T4 construct: gene CA7; recombinant, obtained in-house; cytosolic isoform
T4 sequence (P43166 whole entry, canonical isoform): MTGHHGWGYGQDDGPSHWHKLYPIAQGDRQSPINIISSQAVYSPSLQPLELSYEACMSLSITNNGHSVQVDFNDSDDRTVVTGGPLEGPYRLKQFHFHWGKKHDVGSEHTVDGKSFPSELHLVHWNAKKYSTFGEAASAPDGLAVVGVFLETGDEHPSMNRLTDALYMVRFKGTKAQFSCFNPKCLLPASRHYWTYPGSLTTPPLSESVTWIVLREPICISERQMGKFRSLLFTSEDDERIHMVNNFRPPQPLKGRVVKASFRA
From the text: stopped-flow CO2 hydrase assay on hCA VII

Ki (hCA IX)	Ki (hCA II)	Ki (hCA I)	Ki (hCA VII)	Structure (SMILES)
32.9 nM	70 nM	471 nM	75.4 nM	NC(=S)Nc1ccc(S(N)(=O)=O)cc1 [compound 1, 4-Thioureido-benzenesulfonamide]
3.7 nM	33.6 nM	84.1 nM	84.2 nM	Nc1nc2ccc(S(N)(=O)=O)cc2s1 [compound 2, 2-Aminobenzo[d]thiazole-6-sulfonamide]
296 nM	149 nM	917 nM	75 nM	NC(=S)Nc1cccc(S(N)(=O)=O)c1 [compound 3, 3-Thioureidobenzenesulfonamide]
38.2 nM	369 nM	795 nM	56.5 nM	Nc1nc2cc(S(N)(=O)=O)ccc2s1 [compound 4, 2-Aminobenzo[d]thiazole-5-sulfonamide]
16.2 nM	8.7 nM	306 nM	31.1 nM	Nc1nc2c(Br)cc(S(N)(=O)=O)cc2s1 [compound 5, 2-Amino-4-bromobenzo[d]thiazole-6-sulfonamide]
29.6 nM	7.8 nM	705 nM	0.8 nM	Nc1nc2c(Br)c(S(N)(=O)=O)ccc2s1 [compound 6, 2-Amino-4-bromobenzo[d]thiazole-5-sulfonamide]
212 nM	15.1 nM	606 nM	92.3 nM	Nc1nc2c(I)cc(S(N)(=O)=O)cc2s1 [compound 7, 2-Amino-4-iodobenzo[d]thiazole-6-sulfonamide]
100 nM	51.5 nM	482 nM	42.2 nM	Nc1nc2c(I)c(S(N)(=O)=O)ccc2s1 [compound 8, 2-Amino-4-iodobenzo[d]thiazole-5-sulfonamide]
23.2 nM	20.8 nM	361 nM	54.4 nM	CC(=O)Nc1nc2ccc(S(N)(=O)=O)cc2s1 [compound 9, N-(6-sulfamoylbenzo[d]thiazol-2-yl)acetamide]
34.4 nM	211 nM	2330 nM	80.6 nM	CC(=O)Nc1nc2c(Br)cc(S(N)(=O)=O)cc2s1 [compound 10, N-(4-bromo-6-sulfamoylbenzo[d]thiazol-2-yl)acetamide]
32.6 nM	42 nM	341 nM	81.5 nM	CC(=O)Nc1nc2cc(S(N)(=O)=O)ccc2s1 [compound 11, N-(5-sulfamoylbenzo[d]thiazol-2-yl)acetamide]
10 nM	13.5 nM	97.1 nM	46.5 nM	NS(=O)(=O)c1ccc2nc(NC(=O)c3ccccc3C(=O)O)sc2c1 [compound 12, 2-((6-Sulfamoylbenzo[d]thiazol-2-yl)carbamoyl)benzoic acid]
